Laboratory results published in US5891882A, “Benzopyranopyrrole and benzopyranopyridine α-1 adenergic compounds” (priority 1997, dated 1999).
Structures can show the parent of a compound that is named as a salt. Where two headings read alike, the source gives them in different places.

Columns and labels:
[1] = molecular target: T1, α-1a adrenoreceptor (bovine) (Bos taurus, UniProt P18130); assay: In vitro [3H]-prazosin radioligand binding, cloned α-1a adrenoreceptor expressed in LTK cells
T1 construct: expressed in transfected cells; cDNA from TULCO; membranes
T1 sequence (P18130 1-466): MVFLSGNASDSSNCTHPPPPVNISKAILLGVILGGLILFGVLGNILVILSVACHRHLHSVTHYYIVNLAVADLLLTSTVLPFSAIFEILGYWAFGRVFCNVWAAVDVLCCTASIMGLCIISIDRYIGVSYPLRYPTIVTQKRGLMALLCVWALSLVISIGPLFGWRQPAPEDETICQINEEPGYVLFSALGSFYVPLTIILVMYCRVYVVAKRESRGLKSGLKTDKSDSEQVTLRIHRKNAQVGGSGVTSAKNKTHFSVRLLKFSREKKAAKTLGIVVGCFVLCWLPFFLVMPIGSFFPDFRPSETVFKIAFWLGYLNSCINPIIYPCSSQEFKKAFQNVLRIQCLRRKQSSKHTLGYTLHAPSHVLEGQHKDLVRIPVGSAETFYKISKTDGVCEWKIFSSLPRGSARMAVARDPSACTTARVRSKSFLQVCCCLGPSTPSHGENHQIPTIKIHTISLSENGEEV
Excerpt: (§1) The cDNA clones encoding the α-1 adrenoreceptors (α-1a, α-1b, and α-1d) were obtained from TULCO (Triangle Universities Licensing Consortium, Research Triangle Park, N.C.) and inserted into the eukaryotic expression vector SnaB30. In this vector, expression of the adrenoreceptor gene is under the transcriptional control of an SV40 early promoter. Positive drug selection is provided by a neomycin-resistance gene. Mouse fibroblast cells (LTK) were transfected with the α1 expression plasmids and grown in Dulbecco's modified Eagle's medium (DMEM) containing 10% fetal calf serum and […]. Stable G418-resistant parental lines were generated, with successful expression of adrenoreceptor protein monitored using radioligand binding techniques. Stable single cell clones derived from the parental lines were screened in adrenoreceptor binding assays to identify clones having high adrenoreceptor density. Roller bottle cultures of the cloned lines were used to provide cell membranes for subsequent adrenoreceptor binding characterization studies. A cell line containing the SnaB30 vector expressing the human erythropoietin gene served as a negative control.
(§2) For adrenoreceptor binding assays, large scale membrane preparations were utilized in which 6 million cells were seeded into small (450 cm^2) Corning tissue culture roller bottles. 200 mL of DMEM containing 10% fetal calf serum and 300 μM G418 were added to each roller bottle. A 95% air/5% CO2 gas mixture (sterile) was injected into each roller bottle prior to sealing. The bottles were then incubated at 37° C. on a roller rack for 5 days. Cells were re-fed with fresh medium after 3 days in culture.
(§3) On the fifth day of culture, growth medium was removed from cells grown in roller bottles, and the cells were washed twice with PBS (Sigma, 120 mM NaCl, 2.7 mM KCl, 10 mM Na2 HPO4 --NaH2 PO4, pH=7.4). Cells were detached from the roller bottles by incubating for 15 minutes at 37° C. in a Tris-EDTA solution (10 mM Tris, 100 mM NaCl, 1 mM EDTA, pH=7.4). The cell suspension from each roller bottle was decanted into tared centrifuge tubes and kept on ice. An aliquot of each cell suspension was generally taken for cell counting. Cells were centrifuged at 3000×G for 5 min at 2°-4° C., washed with PBS and recentrifuged. The supernatant was decanted and the pellet weighed to determine the wet weight of cells. Cells were washed a final time in 40 vol 5 mM Tris-HCl, 5 mM EDTA, pH=7.7, and centrifuged at 40,000×G for 10 minutes. Cells were homogenized in 10 mL of 50 mM Tris-HCl, 5 mM EDTA (pH=7.4) and diluted to 40 mL/tube. Homogenates were centrifuged at 40,000×G for 10 minutes. The supernatant was decanted and the pellets rehomogenized in 50 mM Tris-HCl (pH=7.4) and centrifuged as before. The supernatant was decanted and the homogenate resuspended in 6.25 volumes (per gram wet weight) of 50 mM Tris-HCl and aliquots of the pooled homogenates frozen in liquid N2 and stored at -70° C. until the time of assay. Rat submaxillary glands were used for α-1A adrenoreceptors and were prepared essentially as described (Michel, A. D., Loury, D. N. and Whiting, R. L., Brit. J. Pharmacol. 98: 83-889 (1989)).
(§4) Receptor binding assays for α-1 adrenoreceptors were performed essentially as described by Greengrass and Bremner (Eur. J. Pharmacol. 55: 323-326 (1979)). […] Radioactivity was determined by standard liquid scintillation techniques. Data were analyzed as previously described (Hancock, A. A., Kyncl, J. J., Martin, Y. C. and DeBernardis, J. F., J Receptor Res. 8: 23-46 (1988)).

[2] = molecular target: T2, α-1b adrenoreceptor (hamster) (Mesocricetus auratus, UniProt P18841); assay: In vitro [3H]-prazosin radioligand binding, cloned α-1b adrenoreceptor expressed in LTK cells
T2 construct: expressed in transfected cells; cDNA from TULCO; membranes
T2 sequence (P18841 1-515): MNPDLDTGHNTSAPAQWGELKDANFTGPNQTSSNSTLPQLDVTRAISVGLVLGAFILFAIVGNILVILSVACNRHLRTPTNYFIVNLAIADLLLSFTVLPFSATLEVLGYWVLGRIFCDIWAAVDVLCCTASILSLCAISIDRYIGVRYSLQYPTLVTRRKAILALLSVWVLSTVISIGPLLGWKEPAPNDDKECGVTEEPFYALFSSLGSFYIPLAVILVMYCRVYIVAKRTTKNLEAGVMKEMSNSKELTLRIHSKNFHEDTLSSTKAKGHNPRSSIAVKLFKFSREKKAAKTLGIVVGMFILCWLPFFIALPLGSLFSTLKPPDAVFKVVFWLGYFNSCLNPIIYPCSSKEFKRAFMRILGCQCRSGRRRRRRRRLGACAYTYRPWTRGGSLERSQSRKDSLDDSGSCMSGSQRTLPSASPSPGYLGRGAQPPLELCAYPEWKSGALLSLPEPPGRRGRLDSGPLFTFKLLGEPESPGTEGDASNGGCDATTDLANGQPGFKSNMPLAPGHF
Excerpt: as §1, §2, §3, §4

[3] = cloned bovine α-1a in LTK cells, [3H]prazosin 0.2 nM, read-out: Radioligand Binding (Ki; nM) 1a (Bovine)
[4] = cloned hamster α-1b in LTK cells, [3H]prazosin 0.2 nM, read-out: Radioligand Binding (Ki; nM) 1b (Hamster)

| Ki [1, 3] [nM] | Ki [2, 4] [nM] | Structure (SMILES) | Ki [1] [nM] | Ki [2] [nM] |
| --- | --- | --- | --- | --- |
| – | – | COc1cccc2c1[C@@H]1CCN(CCCCn3c(=O)[nH]c4c(sc5ccccc54)c3=O)C[C@H]1CO2 (relative stereo) [Example 87, 3-[4-((±)-trans-10-Methoxy-1,3,4,4a,5,10b-hexahydro-2H-[1]-benzopyrano[3,4-c]pyrido-3-yl)butyl]-[1]-benzthieno[3,2-d]pyrimidine-2,4(1H,3H)-dione hydrochloride] | 0.227 | 2.86 |
| 0.066 | 1.46 | COc1cc2[nH]c(=O)n(CCN3CC[C@H]4c5c(OC)cccc5OC[C@@H]4C3)c(=O)c2cc1OC (relative stereo) [Example 91, 3-[2-((±)-trans-10-Methoxy-1,3,4,4a,5,10b-hexahydro-2H-[1]-benzopyrano[3,4-c]pyrido-3-yl)ethyl]-6,7-dimethoxy-quinazoline-2,4(1H,3H)-dione hydrochloride] | – | – |
| 0.082 | 10.5 | COc1ccc2c(n1)sc1c(=O)n(CCCCN3C[C@@H]4COc5cccc(OC)c5[C@@H]4C3)c(=O)[nH]c12 [Example 33, hydrochloride] | – | – |
| – | – | COc1cccc2c1[C@@H]1CCN(CCCCn3c(=O)[nH]c4c(sc5cccnc54)c3=O)C[C@H]1CO2 (relative stereo) [Example 88, 3-[4-((±)-trans-10-Methoxy-1,3,4,4a,5,10b-hexahydro-2H-[1]-benzopyrano[3,4-c]pyrido-3-yl)butyl]-pyrido[2',3':4,5]thieno[3,2-d]pyrimidine-2,4(1H,3H)-dione hydrochloride] | 0.11 | 0.791 |
